Laboratory results: patent US20210261512A1, “NOVEL COMPOUNDS” (INFLAZOME LIMITED, priority 2018, published 2021)
One block for each molecule: values may come before it.

Key:
[1] = PK, intravenous administration; format: in vivo; details: rat, plasma, male Sprague Dawley rats, dose about 1 mg/kg; for Vd: read-out: Vdss
Method in brief: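 Male Sprague Dawley rats (6-9 weeks); IV dosing via tail vein as solution in DMSO:water or DMSO:PBS (10:90), oral dosing in 0.5% methylcellulose after overnight fasting. Plasma sampled at 8 time-points to 24 h; parameters derived from LC-MS/MS data.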

PK, oral administration = format: in vivo, male Sprague Dawley rats; details: male, Sprague Dawley, plasma, rat, 3 mg/kg
Procedure: Pharmacokinetic parameters were determined in male Sprague Dawley rats (Vital River Laboratory Animal Technology Co Ltd, Beijing, China, 6-9 weeks old). Animals were maintained under a 12 h light/dark cycle. Animals had free access to food and water, except that orally dosed animals were food deprived overnight prior to the study.
For intravenous administration, compounds were formulated as a solution (in DMSO:water [10:90] or in DMSO:PBS [10:90]) in 2 mL/kg dosing volume and administered via tail vein. For oral administration, compounds were formulated as a solution (in 0.5% methylcellulose in water) in […] dosing volume and administered orally.
Serial blood samples (about 200 μL) were taken from each animal at each of 8 time-points post dose ([…], 0.25, 0.5, 1, 2, 4, 8 and 24 h). Samples were held on ice for no longer than 30 minutes before centrifugation (5,696 rpm (3,000 g) for 15 minutes) for plasma generation. Plasma was frozen on dry ice prior to bioanalysis. PK parameters were generated from LC-MS/MS data using Phoenix WinNonlin 6.3 software.

NLRP3 [2] = biological target: T1, NLRP3 (Homo sapiens, UniProt Q96P20); assay: THP-1 cells pyroptosis assay; format: cell-based; set-up: Seed THP-1 cells (25,000 cells/well) containing 1.0 μg/ml LPS; host or cells: THP-1; details: LPS 1.0 μg/ml, nigericin 5 μM, resazurin readout, 10 μM top dose (Example 2: top dose of 30 μM)
Method in brief: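 Pyroptosis induced by 5 μM nigericin (1 h) in LPS-primed (1 μg/ml) THP-1 cells, 25,000/well in serum-free RPMI, after 3 h compound pre-treatment (8 points, 10 μM top unless stated). Surviving cells measured with 100 μM resazurin, Ex 560/Em 590; IC50 via variable-slope 4-parameter regression.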

NLRP3 inflammasome = details: previously characterised weak NLRP3 inhibitors; nonspecific; cited from earlier work
NLRP3 [3] = biological target: T1, NLRP3; assay: Human whole blood IL1β release assay; format: cell-based; details: LPS 1 μg/ml, nigericin 10 μM, IL-1β AlphaLisa, 10 μM top dose (Example 2: top dose of 30 μM), read-out: HWB IC50
Method in brief: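 Healthy-donor heparinised human whole blood with 1 μg/ml LPS, compound (8-point half-log dilution, 10 μM top dose unless stated; 0.1% DMSO vehicle) for 3 h at 37 °C, then nigericin 10 μM final for 1 h. Supernatant IL-1β by AlphaLISA; IC50 from 4-parameter variable-slope fit.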

T1 sequence (Q96P20 whole entry): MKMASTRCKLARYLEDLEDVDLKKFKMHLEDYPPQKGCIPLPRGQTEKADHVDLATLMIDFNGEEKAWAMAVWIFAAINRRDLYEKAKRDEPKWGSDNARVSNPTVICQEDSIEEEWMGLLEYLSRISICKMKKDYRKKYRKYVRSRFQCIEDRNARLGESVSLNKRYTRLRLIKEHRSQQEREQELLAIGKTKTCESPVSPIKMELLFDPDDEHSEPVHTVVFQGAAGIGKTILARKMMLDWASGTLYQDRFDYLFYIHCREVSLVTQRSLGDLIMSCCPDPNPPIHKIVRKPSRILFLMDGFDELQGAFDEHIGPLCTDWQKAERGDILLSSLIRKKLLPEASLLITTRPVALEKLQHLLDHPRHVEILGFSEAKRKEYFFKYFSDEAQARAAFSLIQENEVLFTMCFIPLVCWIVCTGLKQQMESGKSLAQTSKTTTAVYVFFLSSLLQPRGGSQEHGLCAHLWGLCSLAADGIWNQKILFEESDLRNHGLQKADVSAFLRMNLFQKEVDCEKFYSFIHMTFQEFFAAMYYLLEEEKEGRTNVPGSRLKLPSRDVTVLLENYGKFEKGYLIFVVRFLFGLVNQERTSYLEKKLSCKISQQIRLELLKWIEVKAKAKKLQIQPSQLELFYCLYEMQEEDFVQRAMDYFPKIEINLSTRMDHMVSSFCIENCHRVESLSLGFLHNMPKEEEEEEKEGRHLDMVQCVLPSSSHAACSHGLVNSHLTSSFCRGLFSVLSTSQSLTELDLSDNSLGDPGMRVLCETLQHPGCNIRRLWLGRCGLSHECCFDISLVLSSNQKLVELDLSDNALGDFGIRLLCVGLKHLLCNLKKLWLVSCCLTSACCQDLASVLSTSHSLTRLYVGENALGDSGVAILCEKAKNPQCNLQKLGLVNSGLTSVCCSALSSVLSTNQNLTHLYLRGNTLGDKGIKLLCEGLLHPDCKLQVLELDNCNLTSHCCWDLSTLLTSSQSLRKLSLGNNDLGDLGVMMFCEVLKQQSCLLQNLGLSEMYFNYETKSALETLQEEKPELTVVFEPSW

SMILES: C[S+](C)[O-] [dimethyl sulfoxide]
NLRP3 inhibition (NLRP3 inflammasome): limited potency

SMILES: O=[N+]([O-])C=Cc1ccc2c(c1)OCO2 [3,4-methylenedioxy-β-nitrostyrene]
NLRP3 inhibition (NLRP3 inflammasome): limited potency

SMILES: COc1cc(-c2cc(F)cc(C(C)C)c2Oc2nnc(S(=O)(=O)N3CCC4(CCN4C)CC3)[nH]2)ccn1 [Example 252, 7-((5-(4-fluoro-2-isopropyl-6-(2-methoxypyridin-4-yl)phenoxy)-4H-1,2,4-triazol-3-yl)sulfonyl)-1-methyl-1,7-diazaspiro[3.5]nonane]
IC50 (NLRP3 [3]): ≤ 5000 nM
AUC [1]: 362 ng·h/mL
clearance [1]: 51.1 mL/min/kg
half-life [1]: 0.426 h
Vd [1]: 0.82 L/kg
IC50 (NLRP3 [2]): ≤ 1000 nM

Further lines, results first:

AUC [1]: 602 ng·h/mL
clearance [1]: 28 mL/min/kg
half-life [1]: 0.7 h
Vd [1]: 0.66 L/kg
AUC (PK, oral administration): 878 ng·h/mL
CL/F (PK, oral administration): 61.5 mL/min/kg
Cmax (PK, oral administration): 594 ng/mL
Tmax (PK, oral administration): 0.25 h
bioavailability (PK, oral administration): 48.6%
half-life (PK, oral administration): 1.2 h
IC50 (NLRP3 [2]): ≤ 1000 nM
SMILES: CN(C)Cc1ccc(S(=O)(=O)c2nnc(Nc3c4c(cc5c3CCC5)CCC4)[nH]2)cc1 [Example 43, 5-((4-((dimethylamino)methyl)phenyl)sulfonyl)-N-(1,2,3,5,6,7-hexahydro-s-indacen-4-yl)-4H-1,2,4-triazol-3-amine]

IC50 (NLRP3 [3]): ≤ 1000 nM
AUC [1]: 224 ng·h/mL
clearance [1]: 72.3 mL/min/kg
half-life [1]: 2.18 h
Vd [1]: 6.41 L/kg
IC50 (NLRP3 [2]): ≤ 500 nM
SMILES: COc1cc(-c2c(C)cc3c(c2Nc2nnc(S(=O)(=O)N4CCC(N(C)C)CC4)[nH]2)CCC3)ccn1 [Example 216, 1-((5-((5-(2-methoxypyridin-4-yl)-6-methyl-2,3-dihydro-1H-inden-4-yl)amino)-4H-1,2,4-triazol-3-yl)sulfonyl)-N,N-dimethylpiperidin-4-amine]

IC50 (NLRP3 [3]): ≤ 1000 nM
AUC [1]: 221 ng·h/mL
clearance [1]: 75 mL/min/kg
half-life [1]: 3.53 h
Vd [1]: 14.9 L/kg
IC50 (NLRP3 [2]): ≤ 500 nM
SMILES: CN(C)C1CCCN(S(=O)(=O)c2nnc(Nc3c4c(cc5c3CCC5)CCC4)[nH]2)CC1 (stereo not shown) [Example 271, 1-((5-((1,2,3,5,6,7-hexahydro-s-indacen-4-yl)amino)-4H-1,2,4-triazol-3-yl)sulfonyl)-N,N-dimethylazepan-4-amine]

IC50 (NLRP3 [3]): ≤ 500 nM
AUC [1]: 195 ng·h/mL
clearance [1]: 103 mL/min/kg
half-life [1]: 1.33 h
Vd [1]: 5.21 L/kg
IC50 (NLRP3 [2]): ≤ 500 nM
SMILES: COc1cc(-c2cc(F)c3c(c2Nc2nnc(S(=O)(=O)N4CC5(CCN(C)C5)C4)[nH]2)CCC3)ccn1 [Example 299, N-(7-fluoro-5-(2-methoxypyridin-4-yl)-2,3-dihydro-1H-inden-4-yl)-5-((6-methyl-2,6-diazaspiro[3.4]octan-2-yl)sulfonyl)-4H-1,2,4-triazol-3-amine]

IC50 (NLRP3 [3]): ≤ 500 nM
AUC [1]: 307 ng·h/mL
clearance [1]: 54.2 mL/min/kg
half-life [1]: 1.4 h
Vd [1]: 4.01 L/kg
IC50 (NLRP3 [2]): ≤ 500 nM
SMILES: CN(C)C1CCN(S(=O)(=O)c2nnc(Nc3c4c(cc5c3CCC5)CCC4)[nH]2)CC1 [Example 118, 1-((5-((1,2,3,5,6,7-hexahydro-s-indacen-4-yl)amino)-4H-1,2,4-triazol-3-yl)sulfonyl)-N,N-dimethylpiperidin-4-amine]
